Results published in patent US20060293388A1, “Pomolic acid, its isomers, derivatives and their uses, pharmaceutical composition, method to prepare the pharmaceutical composition and method for treating multidrug resistant tumours” (UNIVERSIDADE FEDERAL DO RIO DE JANEIRO, priority 2003, published 2006).

Tests used:
Lucena 1 = assay: Growth/survival of Lucena 1 cells under vincristine and efflux pump modulators; assay type: cell-based
Method: A possible reverser activity of pomolic acid was evaluated by testing its effect over Lucena 1 cell line, that over expresses P glycoprotein (Pgp).

K562 = assay: Growth/survival of K562 cells under vincristine and efflux pump modulators; assay type: cell-based
[1] = tested on: resistant leukaemia cell line Lucena 1; assay: Inhibition of cellular proliferation, 3H-thymidine incorporation, Lucena 1; assay type: cell-based
Method: The values represent the mean±standard error of three independent experiments. […] The values represent the mean±standard error of three independent experiments. The inhibition of cellular proliferation was measured through the incorporation of radioactive thimidine (3H-TdR). For this, 180 μl of the cell suspensions are delivered in wells of a 96 wells culture microtiter plate, 2×10^4 cells/well, followed by incubation in a CO2 incubator, at 37° C. for 24 h. After this period, 20 μl of RPMI (control) or the drug to be tested at the concentrations of 100 μg/ml, 50 μg/ml, 25 μg/ml, 10 μg/ml and 1 μg/ml, are added to each group of four wells. Some wells, to be used as controls, receive 20 μl of DMSO in the same concentrations carried by the drugs. Eight hours before the end of the culture, the plate received a pulse of radioactive thymidine (1 μCi/well) and radioactivity was measured in a β counter. The percentage of inhibition was calculated taking as a reference cell growth in the presence of DMSO. […] The experimental design was the same one as described in example 1.

K562 cells = assay: DNA fragmentation (apoptosis induction) by propidium iodide flow cytometry; assay type: cell-based; settings: 18 h, mean ± SD of 3 experiments
Method: The effect of pomolic acid over DNA fragmentation was studied through the analysis of the cell cycle by flow cytometry. For this 90 μl of cells (2.5×10^5 cells/well) will be distributed in 96 well plates to which it will be added 10 μl of medium, DMSO or the drugs under test (10, 25, 50 and 100 μg/ml). After the defined period of time the cells will be harvested and spun down at 240 g for 5 min. The pellet will be resuspended in 300 μl of a HFS solution (HFS: 0.1% of Triton x-100, 0.1% of sodium citrate and 50 μg/ml of propidium iodide) and incubated at 4° C. for 1 h, in the absence of light. The samples will be read in a flow cytometer (Becton and Dikinson) using the FL2 channel.
The K562 cells were treated with 10, 25, 50 and 100 μg/ml of pomolic acid for 18 h, lysed by HFS treatment (that contains propidium iodide) and DNA fragmentation was measured by FACS (flow cytometry). The values represent the mean±SD of three independent experiments.

CaCo-2 cells = assay: Cytotoxicity, MTT method, CaCo-2; assay type: cell-based; settings: 1-100 μg/ml, 48 h, FIGS. 6 and 8
Method: Caco-2 cells were treated with 1, 5, 10, 25, 50 and 100 μg/ml of pomolic acid for 48 hours. The values represent the mean±standard error of three independent experiments.
(§1) The evaluation of the capacity of pomolic acid, its isomers and derivatives of killing tumor cells will be performed in vitro by the MTT method. The MTT method (3-4,5-dimethylthiazol-2yl)-2,5-diphenyltetrazolium bromide), that is based on the reduction of this compound to Formazam by the enzyme NADH dehydrogenase, Mosmann 1983, allows the quantification of the number of viable cells after treatment. For this, cells from the different cell lines will be processed as described above, distributed into plates and treated with the drug desired concentrations (1, 5, 10, 25, 50 or 100 μg/ml) or DMSO. After 48 h, 20 μl of MTT (5 mg/ml) will be added to each well and the plate will be incubated for a further 4 h in an incubator at 37° C. Following centrifugation, the formazan crystals will be dissolved with DMSO (200 μl/well) and the reading of the absorbance will be made in an ELISA reader at 570 nm wavelength. The percentage of inhibition of cellular viability will be calculated using as reference cells treated with DMSO.
(§2) For this 180 μl of the cell suspension (CaCo-2 or MA104) will be delivered to wells in a 96 wells microtiter plate, 2×10^4 cells/well, and the plate incubated in a CO2 incubator at 37° C. for 24 h. […]

HL-60 cells = assay: Cytotoxicity, MTT method, HL-60; assay type: cell-based; settings: 1-100 μg/ml, 48 hours, FIG. 5
Method: HL-60 cells were treated with 1, 5, 10, 25, 50 and 100 μg/ml of pomolic acid for 48 hours. The values represent the mean±standard error of three independent experiments.
as §1

MA104 cells = assay: Cytotoxicity, MTT method, MA104; assay type: cell-based, monkey; settings: 1-100 μg/ml, 48 h, FIGS. 7 and 8
Method: Ma104 cells were treated with 1, 5, 10, 25, 50 and 100 μg/ml of pomolic acid for 48 hours. The values represent the mean±standard error of three independent experiments.
as §1, §2

HEp-2 (throat cancer) = assay: Cytotoxicity, HEp-2; assay type: cell-based
Source text: as §1
(§3) Pomolic's acid activity was evaluated on cells sensitive to chemotherapeutic agents, such as leukaemic lines (K562 and HL-60), of lung cancer (A549) and throat (HEp-2), and on multidrug resistant of leukaemic origin (Lucena 1), of colon cancer (CaCo-2) and of monkey kidney (MA104). […]

leukaemic cell line K562 = assay: Inhibition of cellular proliferation, 3H-thymidine incorporation, K562; assay type: cell-based; settings: 1, 10 and 100 μg/ml, 48 hours, FIG. 1, dose-dependent
Method: FIG. 1 describes the inhibition of proliferation of the leukaemic cell line K562 by pomolic acid. […] The values represent the mean±standard error of three independent experiments. The inhibition of cellular proliferation was measured through the incorporation of radioactive thimidine (3H-TdR). For this, 180 μl of the cell suspensions are delivered in wells of a 96 wells culture microtiter plate, 2×10^4 cells/well, followed by incubation in a CO2 incubator, at 37° C. for 24 h. After this period, 20 μl of RPMI (control) or the drug to be tested at the concentrations of 100 μg/ml, 50 μg/ml, 25 μg/ml, 10 μg/ml and 1 μg/ml, are added to each group of four wells. Some wells, to be used as controls, receive 20 μl of DMSO in the same concentrations carried by the drugs. Eight hours before the end of the culture, the plate received a pulse of radioactive thymidine (1 μCi/well) and radioactivity was measured in a β counter. The percentage of inhibition was calculated taking as a reference cell growth in the presence of DMSO.

A549 (lung cancer) = assay: Cytotoxicity, A549; assay type: cell-based
Source text: as §1, §3

In the case of `CC[C@]1(O)C[C@H]2CN(CCc3c([nH]c4ccccc34)[C@@](C(=O)OC)(c3cc4c(cc3OC)N(C=O)[C@H]3[C@@](O)(C(=O)OC)[C@H](OC(C)=O)[C@]5(CC)C=CCN6CC[C@]43[C@@H]65)C2)C1` [VCR, vincristine], the “percentage of survival in relation to the untreated control, Lucena” value (“percentage of survival in relation … Lucena” below) (Lucena 1; Table 2, 3.75 nM) is reported as 106.6 ± 3.8%, the “percentage of survival in relation … Lucena” value (Lucena 1; Table 2, 7.5 nM) is reported as 98.4 ± 1.9% and the “percentage of survival in relation … Lucena” value (Lucena 1; Table 2, 15 nM) is reported as 97.4 ± 6.3%. For the same compound, the “percentage of survival in relation … Lucena” value (Lucena 1; Table 2, 30 nM) was 99.5 ± 6.5%, the “percentage of survival in relation … Lucena” value (Lucena 1; Table 2, 60 nM) was 97.8 ± 3.7% and the “percentage of survival, Lucena” value (Lucena 1; Table 3, VCR 60 nM) was 105.3 ± 7.3%. The “percentage of survival in relation to the untreated control, K562” value (“percentage of survival in relation … K562” for short) (K562; Table 2, 3.75 nM) was 76 ± 7.8%, the “percentage of survival in relation … K562” value (K562; Table 2, 7.5 nM) was 70.1 ± 11.8% and the “percentage of survival in relation … K562” value (K562; Table 2, 15 nM) was 29.7 ± 7.7%. For the same compound, the “percentage of survival in relation … K562” value (K562; Table 2, 30 nM) was 10 ± 2.9%, the “percentage of survival in relation … K562” value (K562; Table 2, 60 nM) was 4.9 ± 3.1% and the “percentage of survival, K562” value (K562; Table 3, VCR 60 nM) was 3.1 ± 1.5%.
In the case of `C[C@@H]1CC[C@]2(C(=O)O)CC[C@]3(C)C(=CC[C@@H]4[C@@]5(C)CC[C@H](O)C(C)(C)[C@@H]5CC[C@]43C)[C@@H]2[C@]1(C)O` [pomolic acid], the “inhibition of proliferation of Lucena” value ([1]; 1, 10 and 100 μg/ml, 48 hours, FIGS. 2 and 3, dose-dependent) is reported as “inhibits”, the “inhibition of Lucena 1 growth in the presence of vincristine” value ([1]; FIG. 2, 48 hours) is reported as “inhibits Lucena's 1 growth in the presence of vincristine” and the “killing of Lucena 1 in the absence of vincristine” value ([1]; FIG. 3, 48 hours) is reported as “kills Lucena 1 in the absence of vincristine”. For the same compound, the Pgp substrate ([1]; concluded from activity on Pgp over-expressing Lucena 1 without vincristine) was “not a Pgp substrate”, the “Percentage of DNA fragmentation in K562 cells” value (“Percentage of DNA fragmentation” below) (K562 cells; 10 μg/ml) was 4.31 ± 1.21% and the “Percentage of DNA fragmentation” value (K562 cells; 25 μg/ml) was 13.72 ± 0.52%. For the same compound, the “Percentage of DNA fragmentation” value (K562 cells; 50 μg/ml) was 29.93 ± 2.74%, the “Percentage of DNA fragmentation” value (K562 cells; 100 μg/ml) was 74.88 ± 5.69% and the “cytotoxic activity towards CaCo-2” value (CaCo-2 cells) was “shows a cytotoxic activity”. The “cytotoxic activity towards HL-60” value (HL-60 cells) was “shows a cytotoxic activity”, the “cytotoxic activity towards MA104” value (MA104 cells) was “shows a cytotoxic activity” and the “cytotoxic activity towards HEp-2” value (HEp-2 (throat cancer)) was “shows a cytotoxic activity”. The “inhibition of proliferation of K562” value (leukaemic cell line K562) was “inhibits” and the “cytotoxic activity towards A549” value (A549 (lung cancer)) was “shows a cytotoxic activity”.
